Reference: patent publication US9833497B2, “Human originated EGF domain proteins and use of the same” (CHENGDU SOURCEBIO LIMITED-LIABILITY COMPANY, priority 2013, dated 2017)

Experiments:
Assay type in all cases: cell-based
[1] = tested on: E. coli DH5α; assay: Antibacterial activity: MIC and growth curve against E. coli DH5α in 96-well plate; conditions: minimal inhibitory concentration against E. coli DH5α; 96-well plate, 5×10^5 CFU/mL, 37° C., judged after 8 h
In short: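 Log-phase bacteria (OD600 ~0.5) resuspended in LB at 5×10^5 CFU/mL, exposed to recombinant protein at 50, 25, 12.5 μg/mL final in triplicate, 37 °C shaking at 175 rpm. OD600 read every 30 min; MIC is lowest concentration showing no growth.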

[2] = tested on: E. coli BL21; assay: MIC against Gram-negative bacteria: E. coli BL21; conditions: 5×10^5 CFU/mL
In short: (§1)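 LB broth cultures at McFarland 0.5, spun down, resuspended, diluted to 5×10^5 CFU/mL final. Two-fold serial dilutions of purified human EGF domain proteins, triplicate. 37° C, 175 rpm shaking. Endpoint: no visible growth.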

[3] = tested on: Pseudomonas aeruginosa; assay: MIC against Gram-negative bacteria: Pseudomonas aeruginosa; conditions: 5×10^5 CFU/mL
In short: as §1

[4] = tested on: Klebsiella pneumonia; assay: MIC against Gram-negative bacteria: Klebsiella pneumonia; conditions: 5×10^5 CFU/mL
In short: as §1

[5] = tested on: Enterobacter cloacae; assay: MIC against Gram-negative bacteria: Enterobacter cloacae; conditions: 5×10^5 CFU/mL
In short: as §1

[6] = tested on: Aeromonas hydrophila; assay: MIC against Gram-negative bacteria: Aeromonas hydrophila; conditions: 5×10^5 CFU/mL
In short: as §1

[7] = tested on: Citrobacter diversus; assay: MIC against Gram-negative bacteria: Citrobacter diversus; conditions: 5×10^5 CFU/mL
In short: as §1

[8] = tested on: Moraxella catarrhalis; assay: MIC against Gram-negative bacteria: Moraxella catarrhalis; conditions: 5×10^5 CFU/mL
In short: as §1

[9] = tested on: Proteus mirabilis; assay: MIC against Gram-negative bacteria: Proteus mirabilis; conditions: 5×10^5 CFU/mL
In short: as §1

[10] = tested on: Proteus vulgaris; assay: MIC against Gram-negative bacteria: Proteus vulgaris; conditions: 5×10^5 CFU/mL
In short: as §1

[11] = tested on: Serratia marcescens; assay: MIC against Gram-negative bacteria: Serratia marcescens; conditions: 5×10^5 CFU/mL
In short: as §1

[12] = Pseudomonas aeruginosa, 96-well plate, 37° C., 10 h
[13] = Klebsiella pneumonia, 96-well plate, 37° C., 10 h
[14] = Enterobacter cloacae, 96-well plate, 37° C., 10 h
[15] = Aeromonas hydrophila, 96-well plate, 37° C., 10 h
[16] = Citrobacter diversus, 96-well plate, 37° C., 10 h
[17] = Moraxella catarrhalis, 96-well plate, 37° C., 10 h
[18] = Proteus mirabilis, 96-well plate, 37° C., 10 h
[19] = Proteus vulgaris, 96-well plate, 37° C., 10 h
[20] = Serratia marcescens, 96-well plate, 37° C., 10 h
[21] = 10 h cultivation at 37° C., two-fold serial dilution
[22] = P. aeruginosa, 10 h cultivation at 37° C.
[23] = K. pneumonia, 10 h cultivation at 37° C.
[24] = E. cloacae, 10 h cultivation at 37° C.
[25] = A. hydrophila, 10 h cultivation at 37° C.
[26] = C. diversus, 10 h cultivation at 37° C.
[27] = M. catarrhalis, 10 h cultivation at 37° C.
[28] = P. mirabilis, 10 h cultivation at 37° C.
[29] = P. vulgaris, 10 h cultivation at 37° C.
[30] = S. marcescens, 10 h cultivation at 37° C.

“PRT639 (DADECLLFGQEICKNGFCLNTRPGYECYCKQGTYYDPVKLQCF; listed as Homo sapiens)” was tested, and the MIC [1] was 12.5 µg/mL, the “MIC E. coli BL21” value ([2]; 96-well plate, 37° C., 10 h) was 50 µg/mL and the “MIC P. aeruginosa” value ([3]; 96-well plate, 37° C., 10 h) was 12.5 µg/mL. For the same substance, the “MIC K. pneumonia” value ([4]; 96-well plate, 37° C., 10 h) was 50 µg/mL, the “MIC E. cloacae” value ([5]; 96-well plate, 37° C., 10 h) was 12.5 µg/mL and the “MIC A. hydrophila” value ([6]; 96-well plate, 37° C., 10 h) was 50 µg/mL. For the same substance, the “MIC C. diversus” value ([7]; 96-well plate, 37° C., 10 h) was 25 µg/mL, the “MIC M. catarrhalis” value ([8]; 96-well plate, 37° C., 10 h) was 12.5 µg/mL and the “MIC P. mirabilis” value ([9]; 96-well plate, 37° C., 10 h) was 25 µg/mL. The “MIC P. vulgaris” value ([10]; 96-well plate, 37° C., 10 h) was 50 µg/mL and the “MIC S. marcescens” value ([11]; 96-well plate, 37° C., 10 h) was 25 µg/mL.
“PRT93 (PLLHCAPGFCFPGVACIQTESGARCGPCPAGFTGNGSHCT; listed as Homo sapiens)” was tested, and the MIC [1] was 50 µg/mL, the “MIC (μg/mL) E. coli BL21” value ([2]; 96-well plate, 37° C., 10 h) was 12.5 µg/mL and the “MIC (μg/mL) P. aeruginosa” value [3, 12] was 50 µg/mL. The “MIC (μg/mL) K. pneumonia” value [4, 13] was 12.5 µg/mL, the “MIC (μg/mL) E. cloacae” value [5, 14] was 12.5 µg/mL and the “MIC (μg/mL) A. hydrophila” value [6, 15] was 25 µg/mL. For the same substance, the “MIC (μg/mL) C. diversus” value [7, 16] was 100 µg/mL, the “MIC (μg/mL) M. catarrhalis” value [8, 17] was 25 µg/mL and the “MIC (μg/mL) P. mirabilis” value [9, 18] was 12.5 µg/mL. The “MIC (μg/mL) P. vulgaris” value [10, 19] was 12.5 µg/mL and the “MIC (μg/mL) S. marcescens” value [11, 20] was 12.5 µg/mL.
In the case of “PRT1059 (SDSECPLSHDGYCLHDGVCMYIEALDKYACNCVVGYIGERCQ; listed as Homo sapiens)”, the MIC [1] is reported as 50 µg/mL, the “MIC E. coli BL21” value [2, 21] is reported as 12.5 µg/mL and the “MIC P. aeruginosa” value [3, 21] is reported as 50 µg/mL. For the same substance, the “MIC K. pneumonia” value [4, 21] was 12.5 µg/mL, the “MIC E. cloacae” value [5, 21] was 25 µg/mL and the “MIC A. hydrophila” value [6, 21] was 25 µg/mL. For the same substance, the “MIC C. diversus” value [7, 21] was 50 µg/mL, the “MIC M. catarrhalis” value [8, 21] was 12.5 µg/mL and the “MIC P. mirabilis” value [9, 21] was 12.5 µg/mL. The “MIC P. vulgaris” value [10, 21] was 25 µg/mL and the “MIC S. marcescens” value [11, 21] was 12.5 µg/mL.
For “PRT29 (PCNCDVHKGFDPNCNKTNGQCHCKEFHYRPRGSDSCLP; listed as Homo sapiens)”, the MIC [1] was 25 µg/mL, the “MIC (μg/mL) E. coli BL21” value ([2]; 96-well plate, 37° C., 10 h) was 25 µg/mL and the “MIC (μg/mL) P. aeruginosa” value [3, 12] was 12.5 µg/mL. The “MIC (μg/mL) K. pneumonia” value [4, 13] was 25 µg/mL, the “MIC (μg/mL) E. cloacae” value [5, 14] was 50 µg/mL and the “MIC (μg/mL) A. hydrophila” value [6, 15] was 25 µg/mL. For the same substance, the “MIC (μg/mL) C. diversus” value [7, 16] was 25 µg/mL, the “MIC (μg/mL) M. catarrhalis” value [8, 17] was 12.5 µg/mL and the “MIC (μg/mL) P. mirabilis” value [9, 18] was 25 µg/mL. For the same substance, the “MIC (μg/mL) P. vulgaris” value [10, 19] was 50 µg/mL and the “MIC (μg/mL) S. marcescens” value [11, 20] was 12.5 µg/mL.
“PRT813 (FGVNCSSSCSCGGAPCHGVTGQCRCPPGRTGEDCE; listed as Homo sapiens)” was tested, and the MIC [1] was 50 µg/mL, the “MIC (μg/mL) E. coli BL21” value ([2]; 10 h cultivation at 37° C.) was 50 µg/mL and the “MIC (μg/mL) P. aeruginosa” value [3, 22] was 50 µg/mL. The “MIC (μg/mL) K. pneumonia” value [4, 23] was 50 µg/mL, the “MIC (μg/mL) E. cloacae” value [5, 24] was 25 µg/mL and the “MIC (μg/mL) A. hydrophila” value [6, 25] was 50 µg/mL. For the same substance, the “MIC (μg/mL) C. diversus” value [7, 26] was 25 µg/mL, the “MIC (μg/mL) M. catarrhalis” value [8, 27] was 25 µg/mL and the “MIC (μg/mL) P. mirabilis” value [9, 28] was 25 µg/mL. For the same substance, the “MIC (μg/mL) P. vulgaris” value [10, 29] was 50 µg/mL and the “MIC (μg/mL) S. marcescens” value [11, 30] was 12.5 µg/mL.
For “PRT836 (FGHDCSLTCDDCRNGGTCLLGLDGCDCPEGWTGLICN; listed as Homo sapiens)”, the MIC [1] was 50 µg/mL, the “MIC (μg/mL) E. coli BL21” value ([2]; 10 h cultivation at 37° C.) was 12.5 µg/mL and the “MIC (μg/mL) P. aeruginosa” value [3, 22] was 50 µg/mL. For the same substance, the “MIC (μg/mL) K. pneumonia” value [4, 23] was 12.5 µg/mL, the “MIC (μg/mL) E. cloacae” value [5, 24] was 50 µg/mL and the “MIC (μg/mL) A. hydrophila” value [6, 25] was 12.5 µg/mL. The “MIC (μg/mL) C. diversus” value [7, 26] was 25 µg/mL, the “MIC (μg/mL) M. catarrhalis” value [8, 27] was 12.5 µg/mL and the “MIC (μg/mL) P. mirabilis” value [9, 28] was 25 µg/mL. The “MIC (μg/mL) P. vulgaris” value [10, 29] was 25 µg/mL and the “MIC (μg/mL) S. marcescens” value [11, 30] was 12.5 µg/mL.
With “PRT612 (CPCPGGSSCAVVPKTKEVVCTNCPTGTTGKRCELCDDGYFGDPLGRNGPVRLCRL; listed as Homo sapiens)” the MIC [1] was 25 µg/mL, the “MIC E. coli BL21” value ([2]; 96-well plate, 37° C., 10 h) was 12.5 µg/mL and the “MIC P. aeruginosa” value ([3]; 96-well plate, 37° C., 10 h) was 25 µg/mL. The “MIC K. pneumonia” value ([4]; 96-well plate, 37° C., 10 h) was 50 µg/mL, the “MIC E. cloacae” value ([5]; 96-well plate, 37° C., 10 h) was 25 µg/mL and the “MIC A. hydrophila” value ([6]; 96-well plate, 37° C., 10 h) was 12.5 µg/mL. For the same substance, the “MIC C. diversus” value ([7]; 96-well plate, 37° C., 10 h) was 25 µg/mL, the “MIC M. catarrhalis” value ([8]; 96-well plate, 37° C., 10 h) was 50 µg/mL and the “MIC P. mirabilis” value ([9]; 96-well plate, 37° C., 10 h) was 25 µg/mL. The “MIC P. vulgaris” value ([10]; 96-well plate, 37° C., 10 h) was 12.5 µg/mL and the “MIC S. marcescens” value ([11]; 96-well plate, 37° C., 10 h) was 25 µg/mL.
